The values below are quoted from earlier work in patent US20060063794A1, “Method of attenuating graft rejection” (Fujisawa Pharmaceutical Co., Ltd., priority 2004, published 2006).

The conditions of data set [1]: MMF 2 g/day in addition to Tacrolimus and corticosteroid; cited from earlier work.
Data set [2] concerns rat cardiac allografts. To be noted: rats, 20 mg/kg for ten days; cited from earlier work.

For the compound `COc1c(C)c2c(c(O)c1C/C=C(\C)CCC(=O)OCCN1CCOCC1)C(=O)OC2` [MMF], the AR rate in data set [1] is listed as 7.1%.
For `N#Cc1ccc(NC(=O)C(C#N)C(=O)C2CC2)cc1` (centres unmarked) [MNA 279, reference compound], the “Prolongation of graft survival” value in data set [2] is “about two”.
